Key:
[1] = system: filaggrin production in human skin keratinocytes (NHEK); experiment: Filaggrin production test (A): fluorescent immunostaining with Anti-FLG; format: cell-based; settings: for Increase rate of brightness: overnight, relative to Lcell of Comparative Test Example 2 (no calcium salt added = 100); for Brightness/Cell number (Lcell): incubated overnight
Procedure: Various calcium salts were dispersed in water so that the concentration calculated in terms of calcium ion would be 0.89 M, this obtained dispersed solution was then sterilized in an autoclave (at 120° C. for 20 minutes), and thereby various calcium salt stock dispersed solutions were prepared.
Then, according to Table 11, each calcium salt stock aqueous dispersed solution was added to a medium (manufactured by KURABO […] LTD., HuMedia-KG2) while pipetting so that that a predetermined supplemented concentration calculated in terms of calcium ion would be obtained, and thereby a calcium salt supplemented medium was prepared.
On a culture plate of 24-wells to which the same medium as used in the preparation of the above-mentioned calcium salt supplemented medium was added, human skin keratinocytes (manufactured by KURABO […] LTD., NHEK) were inoculated so that the cell density would be 3,800 cells/cm^2, and this was cultured for 3 days (37° C., 5% CO2). Then, this medium was exchanged with the calcium salt supplemented medium prepared as mentioned above and incubated for overnight (37° C., 5% CO2).
Whether filaggrin is produced by a calcium salt was examined using fluorescent immunostaining methods by Anti-Filaggrin/FLG, Rabbit-Poly, Alexa Fluor 488 (manufactured by BIS, hereinafter referred to as “Anti-FLG” as well). Moreover, for comparing the staining, DAPI (4′,6-diamidino-2-phenylindole dihydrochloride, manufactured by Wako Pure Chemical Industries, Ltd) was used to stain the nucleus.
That is to say that the above-mentioned incubated cells for overnight were washed with PBS and fixed with 4% paraformaldehyde solution (manufactured by Wako Pure Chemical Industries, Ltd). The fixed cells were permeabilized with 0.1% Triton-X 100, incubated for overnight with Anti-FLG PBS solution (×50) at 4° C., and then stained with a PBS solution of 100 nM DAPI. Note that the cells were washed with PBS after every operation.
For calculating the relative production amount of filaggrin, a fluorescent microscopic image of the above-mentioned stained cells was taken. The brightness of the image was quantified using Photoshop CS3, and this was normalized by dividing the obtained numerical value with cell numbers (Brightness/Cell number; Lcell). Moreover, the increase rate of brightness by adding various calcium salts in comparison with Lcell of the Comparative Test Example 2 in which calcium salt aqueous dispersed solution has not been added to the medium was calculated.

[2] = system: filaggrin production in human skin keratinocytes (NHEK); experiment: Filaggrin production test (B): calcium salt composition, fluorescent immunostaining; format: cell-based; settings: for Increase rate of brightness: unsupplemented = 100
Procedure: Then, according to Table 12, the calcium salt stock aqueous dispersed solution was added to the same medium as used in filaggrin production test (A) while pipetting so that a predetermined supplemented concentration calculated in terms of calcium ion would be obtained, and thereby a calcium salt supplemented medium was prepared.
On a culture plate of 24-wells to which the same medium as used in filaggrin production test (A) was added, human skin keratinocytes (manufactured by KURABO […] LTD., NHEK) were inoculated so that the cell density would be 3,800 cells/cm^2, and this was cultured for 3 days (37° C., 5% CO2). Then, this medium was exchanged with the calcium salt supplemented medium prepared as mentioned above and incubated for a day or two (37° C., 5% CO2). These incubated cells were stained as in the above-mentioned filaggrin production test (A), and Lcell and the increase rate of brightness were calculated.

[3] = supplemented concentration calculated in terms of calcium ion 1.78 mM
[4] = calcium ion 0.09 mM, cells incubated for 1 day
[5] = calcium ion 0.09 mM, cells incubated for 2 days
[6] = calcium ion 0.89 mM, cells incubated for 1 day
[7] = calcium ion 0.89 mM, cells incubated for 2 days
[8] = supplemented concentration calculated in terms of calcium ion 0.89 mM

Row | Compound | Increase rate of brightness ([1]; calcium ion 1.78 mM) | Brightness/Cell number (Lcell) [1, 3] | Brightness/Cell number (Lcell) [2, 4] | Increase rate of brightness [2, 4] | Brightness/Cell number (Lcell) [2, 5] | Increase rate of brightness [2, 5] | Brightness/Cell number (Lcell) [2, 6] | Increase rate of brightness [2, 6] | Brightness/Cell number (Lcell) [2, 7] | Increase rate of brightness [2, 7] | Increase rate of brightness ([1]; calcium ion 0.89 mM) | Brightness/Cell number (Lcell) [1, 8] | Filaggrin production compared to calcium chloride ([1]; human skin keratinocytes, Table 11)
1 | [Ca+2].[Cl-].[Cl-] [Calcium chloride] | 130% | 0.12 | 0.20 | 83% | 0.16 | 89% | 0.23 | 96% | 0.20 | 110% |  |  | 
2 | O=P([O-])(O)O.O=P([O-])(O)O.[Ca+2] [Calcium dihydrogen phosphate] |  |  |  |  |  |  |  |  |  |  | 180% | 0.17 | 
3 | O=P([O-])([O-])OP(=O)([O-])[O-].[Ca+2].[Ca+2] [Calcium pyrophosphate] | 260% | 0.25 |  |  |  |  |  |  |  |  | 290% | 0.28 | relatively high filaggrin production as compared to that of calcium chloride
4 | Calcium glycerophosphate | 200% | 0.19 |  |  |  |  |  |  |  |  |  |  | 
